Results from patent US20200208112A1, “Method of Selecting Genetically Modified Hematopoietic Stem Cells” (priority 2017, published 2020).

Key:
[1] = system: NIH3T3 cells; experiment: Puromycin selection and ganciclovir sensitivity of LTGCPU7-transduced NIH3T3 cells; format: cell-based
Experimental: a. NIH3T3 cells were mock-transduced (NT) or transduced with LTGCPU7, and LTGCPU7-transduced cells were selected with puromycin. Equivalent numbers of mock- and LTGCPU7-transduced/selected cells were treated with GCV at the indicated concentration. Living cells were counted three days later.
(§1) (Beckman Coulter). Where indicated, purification was performed with a Mustang Q anion exchange membrane cartridge (Pall Corporation), as previously described (Kutner et al., Nature protocols, 2009, 4, 495-505) and a 40K ZebaSpin desalting column (ThermoFisher Scientific), according to the manufacturer's instructions, with concentration by ultracentrifugation. Infectious titers were determined by qPCR, as previously described (Payen, E. et al., Methods in enzymology, 2012, 507, 109-124). When indicated, transduced NIH3T3 cells were selected on puromycin and treated with various concentrations of ganciclovir (Cymevan, Roche). Adult and cord blood CD34^+ cells were cultured in SCGM (CellGenix) and X-VIVO 20 (Lonza) medium, respectively, and transduced as previously described (Negre, O. et al., Current gene therapy, 2015, 15, 64-81). Cells were selected 48 hours after transduction, on puromycin hydrochloride (5 μg/mL, Sigma-Aldrich).

[2] = system: CB CD34+ cells; experiment: Conditional suicide in vitro: ganciclovir treatment of CB CD34+ cells, erythroid progenitor assay; format: cell-based, human
Experimental: (§2) a.b.c.d. Human cord blood CD34^+ cells were transduced with LTGCPU7 and treated with puromycin and cyclosporine A for 24 hours. Non-transduced (NT) and LTGCPU7-transduced cells were then treated with ganciclovir (GCV) for three days, counted (a) and plated on semi-solid medium for the evaluation of erythroid progenitor cell eradication (b). Selected cells were also injected into 16 NSG mice, half of which were treated with GCV four weeks later (50 mg/kg, 6 days per week, for 2 weeks). Human chimerism (c) and VCN in human CD45^+ cells (d) were determined 2 months later.
(§3) CB CD34+ cells were transduced with LTGCPU7, they were treated with ganciclovir for 72 hours, and plated on methylcellulose. The toxicity of ganciclovir was limited in non-transduced cells (FIG. 8a and FIG. 8b) and the number of transduced erythroid progenitors decreased by a factor of 200 and 1000 in the presence of 1 μM and 5 μM ganciclovir respectively (FIG. 8b). The transduced cells were injected into 16 NSG mice. Four weeks later, eight of the mice received ganciclovir. […] The absence of hCD45+ cells in mice with levels below the limit of sensitivity (<0.01%) was confirmed by the lack of enrichment observed on hCD45 cell sorting.

[3] = system: transduced human hCD45+ cells; experiment: Conditional suicide in vivo: ganciclovir treatment of NSG mice carrying transduced human cells; conditions: treated group, 50 mg/kg 6 days per week for 2 weeks, two months later
Experimental: as §2, §3

[4] = system: mobilized peripheral blood (mPB) CD34+ cells; experiment: Puromycin selection of transduced mobilized peripheral blood CD34+ cells (mean VCN, progenitor assay); format: cell-based, human
Experimental: as §1
(§4) Vector copy numbers were determined by the comparative Ct method and set at integer values. Colony-forming cells with VCN values between 0.5 and 1.5 were considered to have a VCN of 1; those with VCN values between 1.5 and 2.5 were considered to have a VCN of 2, and so on. LTC-IC cells were analyzed as previously described (Payen, E. et al., Methods in enzymology, 2012, 507, 109-124). The percentage of vector-modified LTC-IC during the readout phase of the assay was determined, by subjecting no more than one clonogenic myeloid colony per well to qPCR-based scoring to ensure that only independent LTC-ICs were analyzed.
The LTGCPU1 vector expressing the puromycin N-acetyl-transferase (PAC) gene under the human PGK promoter is derived from a β-globin LV that has been tested in an approved human trial for the gene therapy of the beta-hemoglobinopathies (Cavazzana Calvo et al., Nature, 2010; 467, 318-322; FIG. 1). LTGCPU1 transduced bone marrow (BM) CD34^+ cells were transferred onto selective medium containing 10 μg/mL puromycin at 24 or 48 hours after transduction. They were incubated for 24 hours, and the frequency of functional hematopoietic progenitor cell subsets was evaluated. The absolute numbers of vector-bearing erythroid progenitors (BFU-Es) were similar in the presence and absence of treatment, regardless of the time allowed for PAC gene expression. However, incubation for two days was required for the myeloid (CFU-GMs) and long-term progenitor cells (LTC-ICs) to acquire full resistance to the antibiotic (FIG. 2a). Mobilized peripheral blood (mPB) CD34^+ cells were also transduced with LTGCPU1 and treated with puromycin. The mean vector copy number (VCN) per cell was determined for pooled cells and compared with the theoretical VCN obtained in optimal conditions (eradication of all non-transduced cells and survival of all vector-bearing cells). In non-selective conditions, the mean VCN was 0.17. Based on the assumption that vector integration obeys Poisson statistics (see below), optimal selection should give rise to 1.08 copies of the vector per cell. Mean VCN was 1.6 when cells were selected 24 hours after transduction, and close to the expected value (1.08) if puromycin treatment began two or three days after transduction (FIG. 2b). […] With this optimized protocol, the proportion of vector-bearing progenitors (myeloid and erythroid) increased from 10-20% to more than 90% following treatment with 5 μg/mL puromycin (FIG. 2c).

[5] = system: bone marrow (BM) CD34+ cells; experiment: Puromycin selection of LTGCPU1-transduced bone marrow CD34+ cells (progenitor and LTC-IC assays); format: cell-based, human; conditions: 10 μg/mL puromycin for 24 hours, 24 or 48 hours after transduction
Experimental: as §1
as §4, with “Colony-forming cells with VCN values between 0.5 and 1.5 were considered to have a VCN of 1; those with VCN values between 1.5 and 2.5 were considered to have a VCN of 2, and so on.” left out, “analyzed. […]” for “analyzed.”

[6] = system: cord blood CD34+ cells; experiment: Selection of LTGCPU7-transduced cord blood CD34+ cells, progenitor assay on methylcellulose; format: cell-based, human
Experimental: as §1, §4

[7] = system: SCID-repopulating cells (SRC); experiment: Transplantation of transduced and selected cord blood CD34+ cells into NSG mice (SRC selection); conditions: puromycin alone, three months after transplantation
Text: NOD.Cg-Prkdc^scid Il2rg^tmlWjl/SzJ (NOD-scid IL2rgamma^null abbreviated to NSG) mice were obtained from Charles River Laboratories (Saint Germain sur l'Arbresle, France) and kept in individually ventilated cages supplied with sterile food and autoclaved water. […] Experimental protocols were approved by the ethics committee for animal experimentation of the CEA, under notification number 12-033. Three- to four-month-old female recipients (at least 6 mice per group) were sublethally irradiated with a dose of 2.8 Gy (1 Gy/min) to the whole body (TBI). Then, 10^4 to 10^5 transduced and selected human cells were injected intravenously into the mice on the day after irradiation. […]
For progenitor assays performed immediately after in vitro transduction and selection, 500 to 1000 cells were plated in methylcellulose based-medium already supplemented with human cytokines (H4434, Stemcell Technologies). […] The colonies were counted and collected after incubation for 11-14 days, washed with PBS and stored. […]
Non-viable cells were excluded by Sytox Blue nucleic acid staining (ThermoFisher Scientific) or with 7AAD (eBioscience). Data were acquired with MACSQUANT instrument (Miltenyi) and analyzed with FlowJo software (Tree Star, Inc). […]

SMILES	sensitivity of LTGCPU7-transduced, puromycin-selected cells to ganciclovir [1]	toxicity in non-transduced cells [2]	factor of decrease of the number of transduced erythroid progenitors ([2]; 5 μM ganciclovir, 72 hours)	mice in which hCD45+ cells were detected [3]	absolute numbers of transduced progenitors, presence versus absence of puromycin ([4]; LTGCPU1-transduced, optimized protocol)	proportion of vector-bearing progenitors (myeloid and erythroid) ([4]; LTGCPU1-transduced, 5 μg/mL puromycin for 24 hours, 48 hours after transduction)	mean VCN per cell, pooled cells ([4]; LTGCPU1-transduced, puromycin 10 μg/mL, selected 24 hours after transduction)	mean VCN per cell, pooled cells ([4]; LTGCPU1-transduced, puromycin treatment began two or three days after transduction)	percentage of transduced progenitor cells in vitro ([4]; mPB cells, after selection with puromycin (data not shown))	mean VCN in puromycin-treated cells ([4]; mPB cells, in vitro)	absolute numbers of vector-bearing erythroid progenitors (BFU-Es), presence versus absence of treatment [5]	selection of LTGCPU7-transduced cord blood progenitors ([6]; 5 μg/mL puromycin for 24 hours)	mean VCN in erythroid progenitors, pooled cells from methylcellulose ([6]; 5 μg/mL puromycin, absence of MDR1 inhibitors)	mean VCN and percentage of vector-bearing cells in erythroid progenitors versus untreated ([6]; puromycin alone)	mean VCN in hCD45+ cells isolated from mice versus absence of treatment [7]
Nc1nc(O)c2ncn(COC(CO)CO)c2n1 [ganciclovir]	sensitive	limited	1000	one of the eight mice	–	–	–	–	–	–	–	–	–	–	–
COc1ccc(C[C@H](N)C(=O)N[C@H]2[C@@H](O)[C@H](n3cnc4c(N(C)C)ncnc43)O[C@@H]2CO)cc1 [puromycin]	–	–	–	–	similar	more than 90%	1.6	~1.08	100%	greater than 1	similar	efficiently selected	≈ 0.5	higher	similar
